Where a name gives a salt, the structure may show the parent alone.
Tested on: double-stranded oligo probe (DNA)
Assay: High-throughput screen of a compound library with the linear oligo probe (FRET ratio, 384 well plate)
Assay type: binding
Conditions: not given
Method: A library of compounds was mixed with the oligo probe in 384 well plate format. (A) The fluorescence spectra of the probe were recorded on a plate reader as in FIG. 21 and the FRET ratio (Cy5/Cy3 intensity) was calculated. […] (B) A library consisting of 1600 compounds from FDA and internationally approved drugs was screened to detect potential intercalators that can be drug repositioning targets.
The molecular sensors were used in vitro according to the following: 1) The sensors were diluted in a NaCl solution (e.g., in a 50-100 mM NaCl solution) and 0.2% BSA solution to a concentration of 1 μM. This can be adjusted depending on the sensitivity of the fluorescence measurement device. 2) The fluorescence spectrum was measured using a fluorescence spectrophotometer, a plate reader, or any other ad-hoc means. […] 3) The molecular species was added to be characterized for DNA binding properties or to be tested for intercalating or groove binding ability. The appropriate sensor is used (e.g., a linear or flexible molecular sensor). The fluorescence spectrum was measured again using the same methods and settings. 4) The FRET ratio was compared for both the sensor alone and sensor plus tested molecule. The FRET ratio is calculated by dividing the peak intensity of the acceptor fluorescence by that of the donor fluorescence.

Row | Compound | FRET ratio
1 | CCCCCCc1ccc(O)cc1O.Nc1c2ccccc2nc2ccccc12 [ACRISORCIN] | 0.2919
2 | CCOP(=S)(OCC)Oc1nc(Cl)c(Cl)cc1Cl [CHLORPYRIFOS] | 0.5126
3 | CC(=O)Oc1cccc2c1C(=O)c1c(OC(C)=O)cc(C(=O)O)cc1C2=O [DIACERIN] | 0.7
4 | CC(=O)Oc1cc2c(cc1OC(C)=O)[C@@H]1c3ccc(OC(C)=O)c(OC(C)=O)c3OC[C@]1(OC(C)=O)C2 [HAEMATOXYLIN PENTAACETATE] | 0.6134
5 | COc1ccc2c3c([nH]c2c1)C(C)=NCC3 [HARMALINE] | 0.646
6 | COc1ccc2c(c1)[nH]c1c(C)nccc12 [HARMINE] | 0.754
7 | Cc1nccc2c1[nH]c1cc(O)ccc12 [HARMOL HYDROCHLORIDE] | 0.3867
8 | CC(C)(C#N)O[C@@H]1O[C@H](CO)[C@@H](O)[C@H](O)[C@H]1O [LINAMARIN] | 0.4228
9 | CC[C@@H](CO)NC(=O)[C@@H]1C=C2c3cccc4c3c(cn4C)C[C@H]2N(C)C1 [METHYSERGIDE MALEATE] | 0.8993
10 | COc1ccc2nc3cc(Cl)ccc3c(Nc3cc(CN4CCCC4)c(O)c(CN4CCCC4)c3)c2n1.O=P(O)(O)O.O=P(O)(O)O.O=P(O)(O)O.O=P(O)(O)O [PYRONARIDINE TETRAPHOSPHATE] | 0.3325
11 | CC[C@@]1(O)C[C@H](O)c2c(cc3c(c2O)C(=O)c2c(O)ccc(O)c2C3=O)[C@H]1C(=O)OC [RUTILANTINONE] | 0.6761
12 | O=c1n(Cl)c(=O)n(Cl)c(=O)n1Cl [SYMCLOSENE] | 0.1489
13 | MODALINE SULFATE | 0.1375

Same assay, conditions: linear oligo probe, 384 well plate, Cy5/Cy3 intensity; library peak ˜1.1, a small ratio indicates intercalation

Row | Compound | FRET ratio
14 | CC(C)NCC(O)COc1cccc2ccccc12.Cl (racemic) [PROPRANOLOL HYDROCHLORIDE (+/−)] | 0.9132
15 | COc1ccc(-c2cc(=O)c3ccccc3o2)cc1 [4′-METHOXYFLAVONE] | 0.543
16 | CC(=O)c1ccc2c(c1)N(CCCN(C)C)c1ccccc1S2 [ACEPROMAZINE MALEATE] | 0.8037
17 | COc1cc2nc(N(C)CCCNC(=O)C3CCCO3)nc(N)c2cc1OC (centres unmarked) [ALFUZOSIN HYDROCHLORIDE] | 0.6784
18 | O=C1c2c(O)cccc2C([C@@H]2O[C@H](CO)[C@@H](O)[C@H](O)[C@H]2O)c2cc(CO)cc(O)c21 (some centres unmarked) [ALOIN] | 0.7719
19 | N=C(N)NC(=O)c1nc(Cl)c(N)nc1N [AMILORIDE HYDROCHLORIDE] | 0.7057
20 | Nc1c2ccccc2nc2ccccc12 [AMINACRINE] | 0.2941
21 | CCN(CC)Cc1cc(Nc2ccnc3cc(Cl)ccc23)ccc1O [AMODIAQUINE DIHYDROCHLORIDE] | 0.8333
22 | CN1CCc2cccc3c2[C@H]1Cc1ccc(O)c(O)c1-3 [APOMORPHINE HYDROCHLORIDE] | 0.9228
23 | NC(CO)C(=O)NNCc1ccc(O)c(O)c1O (centres unmarked) [BENSERAZIDE HYDROCHLORIDE] | 0.7832
24 | COc1ccc2cc3[n+](cc2c1OC)CCc1cc2c(cc1-3)OCO2 [BERBERINE CHLORIDE] | 0.4262
25 | Cc1ccc(S(=O)(=O)[N-]Cl)cc1.[Na+] [CHLORAMINE-T] | 0.3985
26 | COc1cc(OC)c2c(=O)cc(-c3ccccc3)oc2c1 [CHRYSIN DIMETHYL ETHER] | 0.8385
27 | N.N.[Cl][Pt][Cl] [CISPLATIN] | 0.6996
28 | Cc1cc(N)c2ccccc2[n+]1CCCCCCCCCC[n+]1c(C)cc(N)c2ccccc21 [DEQUALINIUM CHLORIDE] | 0.6126
29 | COc1cc2nc(N3CCN(C(=O)C4COc5ccccc5O4)CC3)nc(N)c2cc1OC (centres unmarked) [DOXAZOSIN MESYLATE] | 0.8089
30 | CCOc1cc(C=O)ccc1O [ETHYL VANILLIN] | 0.9212
31 | CO/N=C1\CN(c2nc3c(cc2F)c(=O)c(C(=O)O)cn3C2CC2)CC1CN (centres unmarked) [GEMIFLOXACIN MESYLATE] | 0.9051
32 | N=C(N)N/N=C/c1c(Cl)cccc1Cl [GUANABENZ ACETATE] | 0.7731
33 | N=C(N)N [GUANIDINE HYDROCHLORIDE] | 0.451
34 | CCN(CC)CCNc1ccc(CO)c2sc3ccccc3c(=O)c12 [HYCANTHONE] | 0.4566

Row | Compound | FRET ratio
35 | CC[C@H]1CN2CC[C@H]1C[C@@H]2[C@@H](O)c1ccnc2ccc(OC)cc12 [HYDROQUINIDINE] | 0.7512
36 | COc1c2occc2c(OC)c2c(=O)cc(C)oc12 [KHELLIN] | 0.7494
37 | COc1c2occc2cc2ccc(=O)oc12 [METHOXSALEN] | 0.9338
38 | NC(N)=NC(=O)c1nc(Cl)c(N2CCCCCC2)nc1N [N,N-HEXAMETHYLENEAMILORIDE] | 0.38
39 | c1ccc2c(CC3=NCCN3)cccc2c1 [NAPHAZOLINE HYDROCHLORIDE] | 0.8789
40 | CCCCC(CC)COC(=O)C(C#N)=C(c1ccccc1)c1ccccc1 (centres unmarked) [OCTOCRYLENE] | 0.9187
41 | Cc1c(-c2cnccn2)ssc1=S [OLTIPRAZ] | 0.7447
42 | COc1cc2c(cc1OC)-c1cc3ccc(OC)c(OC)c3c[n+]1CC2 [PALMATINE CHLORIDE] | 0.5141
43 | OCCN1CCN(CCCN2c3ccccc3Sc3ccc(Cl)cc32)CC1 [PERPHENAZINE] | 0.9495
44 | CC1=CC(=O)c2c(O)cccc2C1=O [PLUMBAGIN] | 0.9364
45 | COc1cc2nc(N3CCN(C(=O)c4ccco4)CC3)nc(N)c2cc1OC [PRAZOSIN HYDROCHLORIDE] | 0.818
46 | COc1cc(NC(C)CCCN)c2ncccc2c1 (centres unmarked) [PRIMAQUINE PHOSPHATE] | 0.8618
47 | CC(=O)[C@H]1CC[C@H]2[C@@H]3CCC4=CC(=O)CC[C@]4(C)[C@H]3CC[C@]12C [PROGESTERONE] | 0.9184
48 | CCN(CC)CCCC(C)Nc1c2ccc(Cl)cc2nc2ccc(OC)cc12 (centres unmarked) [QUINACRINE HYDROCHLORIDE] | 0.2743
49 | C=C[C@H]1C[N@@]2CC[C@H]1C[C@@H]2[C@@H](O)c1ccnc2ccc(OC)cc12 [QUINIDINE GLUCONATE] | 0.9333
50 | C[C@@H]1O[C@@H](O[C@H]2[C@H](Oc3cc(O)c4c(=O)cc(-c5ccc(O)cc5)oc4c3)O[C@H](CO)[C@@H](O)[C@@H]2O)[C@H](O)[C@H](O)[C@H]1O [RHOIFOLIN] | 0.6817
51 | Nc1c2c(nc3ccccc13)CCCC2 [TACRINE HYDROCHLORIDE] | 0.6067
52 | CCN(CC)CCOc1ccc2c(c1)C(=O)c1cc(OCCN(CC)CC)ccc1-2 [TILORONE] | 0.443
53 | CN1[C@@H]2CC[C@H]1C[C@@H](OC(=O)c1c[nH]c3ccccc13)C2 [TROPISETRON HYDROCHLORIDE] | 0.7228
54 | LUPEOL ACETATE | 0.38

Tested on: flexible molecular sensor (DNA)
Assay: Flexible (tongs-shaped) molecular sensor in solution, groove binders and polypeptides (FRET ratio)
Assay type: binding
Conditions: flexible sensor in solution

Row | Compound | FRET ratio as a function of compound concentration
55 | N=C(N)c1ccc(-c2ccc(-c3ccc(C(=N)N)cc3)o2)cc1 [Fourmadine] | concentration-dependent increase of the FRET ratio
56 | Cn1cc(NC(=O)c2cc(NC(=O)CN=C(N)N)cn2C)cc1C(=O)NCCC(=N)N [Netrospin] | concentration-dependent increase of the FRET ratio
57 | N=C(N)c1ccc(OCCCCCOc2ccc(C(=N)N)cc2)cc1 [Pentamidine] | concentration-dependent increase of the FRET ratio
58 | Tri-lysine [Ly-3] | increase the FRET ratio

Same assay, conditions: flexible sensor, 20 mM MgCl added to solution

Row | Compound | FRET ratio as a function of drug concentration, with Mg
59 | COC1C(O)CC(OC2CC(Oc3cc4cc5c(c(O)c4c(O)c3C)C(=O)[C@@H](OC3CC(OC4CC(OC6CC(C)(O)C(OC(C)=O)C(C)O6)C(O)C(C)O4)C(O)C(C)O3)[C@H]([C@H](OC)C(=O)[C@@H](O)[C@@H](C)O)C5)OC(C)C2OC(C)=O)OC1C (some centres unmarked) [Chromomycin] | FRET ratio increases as a function of drug concentration
60 | Mitramycin | FRET ratio increases as a function of drug concentration

Same assay, conditions: flexible sensor, no Mg

Row | Compound | FRET ratio as a function of drug concentration, absence of Mg
61 | COC1C(O)CC(OC2CC(Oc3cc4cc5c(c(O)c4c(O)c3C)C(=O)[C@@H](OC3CC(OC4CC(OC6CC(C)(O)C(OC(C)=O)C(C)O6)C(O)C(C)O4)C(O)C(C)O3)[C@H]([C@H](OC)C(=O)[C@@H](O)[C@@H](C)O)C5)OC(C)C2OC(C)=O)OC1C (some centres unmarked) [Chromomycin] | no change in the FRET ratio
62 | Mitramycin | no change in the FRET ratio

— patent US11242555B2, “Molecular sensors and uses thereof” (New York University, priority 2018, dated 2022)
